Data: ChEMBL document CHEMBL1124810, “Synthesis and anti-HIV evaluation of 2',3'-dideoxyribo-5-chloropyrimidine analogues: reduced toxicity of 5-chlorinated 2',3'-dideoxynucleosides” (1990)

Tests used:
Format in all cases: functional
MT4 [1] = assay: Selectivity index of CD50 to ED50 of MT-4 cells
[2] = system: Human immunodeficiency virus 1; assay: Effective dose achieving 50% protection of MT-4 cells against the cytopathic effect of HIV; settings: Human immunodeficiency virus 1, MT4; read-out: ED50 (the source's name)
MT4 [3] = assay: Cytotoxic dose required to reduce the viability of normal uninfected MT-4 cells by 50%; settings: Homo sapiens, read-out: CD50 (the source's name)

[N-]=[N+]=N[C@H]1C[C@H](n2ccc(=O)[nH]c2=O)O[C@@H]1CO [NAVURIDINE]
Selectivity index (MT4 [1]): 90
EC50 [2]: 0.43 µM
CC50 (MT4 [3]): 39 µM

O=c1ccn([C@H]2C=C[C@@H](CO)O2)c(=O)[nH]1
Selectivity index (MT4 [1]): <2
EC50 [2]: > 20 µM
CC50 (MT4 [3]): 39 µM

Cc1cn(/C=C/C(O)C(O)CO)c(=O)[nH]c1=O (configuration not stated)
Selectivity index (MT4 [1]): >1
EC50 [2]: 475 µM
CC50 (MT4 [3]): > 500 µM

Nc1nc(=O)n([C@H]2C=C[C@@H](CO)O2)cc1Cl
Selectivity index (MT4 [1]): 8.4
EC50 [2]: 22 µM
CC50 (MT4 [3]): 185 µM

O=c1[nH]c(=O)n([C@H]2C=C[C@@H](CO)O2)cc1Cl
Selectivity index (MT4 [1]): <2.2
EC50 [2]: > 20 µM
CC50 (MT4 [3]): 44 µM

Nc1ccn([C@H]2C=C[C@@H](CO)O2)c(=O)n1
Selectivity index (MT4 [1]): 61
EC50 [2]: 0.13 µM
CC50 (MT4 [3]): 7.9 µM

Cc1cn([C@H]2C=C[C@@H](CO)O2)c(=O)[nH]c1=O [STAVUDINE]
Selectivity index (MT4 [1]): 380
EC50 [2]: 0.05 µM
CC50 (MT4 [3]): 19 µM

Cc1cn([C@H]2C[C@H](N=[N+]=[N-])[C@@H](CO)O2)c(=O)[nH]c1=O [ZIDOVUDINE]
Selectivity index (MT4 [1]): 1603
EC50 [2]: 0.003 µM
CC50 (MT4 [3]): 4.81 µM

O=c1ccn(/C=C/C(O)C(O)CO)c(=O)[nH]1 (configuration not stated)
EC50 [2]: > 500 µM
CC50 (MT4 [3]): > 500 µM

[N-]=[N+]=N[C@@H]1CC(n2cc(Cl)c(N)nc2=O)O[C@@H]1CO (some centres not stated)
Selectivity index (MT4 [1]): 97
EC50 [2]: 9 µM
CC50 (MT4 [3]): 877 µM

Nc1nc(=O)n(C2C[C@@H](F)[C@@H](CO)O2)cc1Cl (some centres not stated)
Selectivity index (MT4 [1]): >38
EC50 [2]: 26 µM
CC50 (MT4 [3]): > 1000 µM

Nc1nc(=O)n(C2CCC(CO)O2)cc1Cl (configuration not stated)
EC50 [2]: > 500 µM
CC50 (MT4 [3]): > 500 µM

[N-]=[N+]=N[C@@H]1CC(n2cc(Cl)c(=O)[nH]c2=O)O[C@@H]1CO (some centres not stated)
Selectivity index (MT4 [1]): 296
EC50 [2]: 0.72 µM
CC50 (MT4 [3]): 213 µM

O=c1[nH]c(=O)n([C@H]2C[C@H](F)[C@@H](CO)O2)cc1Cl [RALURIDINE]
Selectivity index (MT4 [1]): 1408
EC50 [2]: 0.38 µM

O=c1ccn(C2C[C@@H](F)[C@@H](CO)O2)c(=O)[nH]1 (some centres not stated)
Selectivity index (MT4 [1]): 18
EC50 [2]: 0.06 µM
CC50 (MT4 [3]): 1.1 µM

Nc1ccn([C@H]2CC[C@@H](CO)O2)c(=O)n1 [ZALCITABINE]
Selectivity index (MT4 [1]): 120
EC50 [2]: 0.3 µM
CC50 (MT4 [3]): 40 µM

[N-]=[N+]=N[C@H]1C[C@H](n2ccc(N)nc2=O)O[C@@H]1CO
Selectivity index (MT4 [1]): 21
EC50 [2]: 7.6 µM
CC50 (MT4 [3]): 160 µM

Nc1ccn(C2C[C@@H](F)[C@@H](CO)O2)c(=O)n1 (some centres not stated)
Selectivity index (MT4 [1]): 1.6
EC50 [2]: 16 µM
CC50 (MT4 [3]): 26 µM

O=c1ccn(C2CCC(CO)O2)c(=O)[nH]1 (configuration not stated)
Selectivity index (MT4 [1]): >3
EC50 [2]: 210 µM
CC50 (MT4 [3]): > 625 µM

O=c1[nH]c(=O)n(C2CCC(CO)O2)cc1Cl (configuration not stated)
Selectivity index (MT4 [1]): >6
EC50 [2]: 81 µM
CC50 (MT4 [3]): > 500 µM
